Reference: patent US20230150978A1, “QUINAZOLINONE DERIVATIVES AND USES THEREOF FOR TREATING A CANCER” (ENYO PHARMA, priority 2020, published 2023)

Columns and labels:
Calreticulin = Calreticulin release (ER to plasma membrane translocation) screen, Nano-Glo HiBiT extracellular detection; type: cell-based; conditions: Homo sapiens, MDA-MB-231, MDA-MB-231 cells stably expressing Calreticulin-HiBiT; extracellular luminescence; read-out: CalR EC50
HMGB1 = HMGB1 release screen, Nano-Glo HiBiT extracellular detection; type: cell-based; conditions: Homo sapiens, MDA-MB-231, MDA-MB-231 cells stably expressing HMGB1-HiBiT; extracellular luminescence

Q: For `COc1cc2c(=O)[nH]c(CN3CC(C)(C)c4ccccc43)nc2cc1F` [Ex. #77, 2-[(3,3-dimethylindolin-1-yl)methyl]-7-fluoro-6-methoxy-3H-quinazolin-4-one], which EC50 (Calreticulin) is on record?
A: 0.15 µM

Q: What about the EC50 (HMGB1) of the same molecule?
A: 0.15 µM

Q: And the melting point?
A: 194 to 209 °C

Q: With `COc1cccc2c1CCN(Cc1nc3ccc(Cl)cc3c(=O)[nH]1)C2` [Ex. #58, 6-chloro-2-[(5-methoxy-3,4-dihydro-1H-isoquinolin-2-yl)methyl]-3H-quinazolin-4-one] as the molecule, how does the EC50 (Calreticulin) read?
A: 0.524 µM

Q: What about the EC50 (HMGB1) of the same molecule?
A: 4.81 µM

Q: And the melting point?
A: 205 to 212 °C

Q: Which results are given for `CC(C)(C)OC(=O)NCCCCOc1ccc2nc(CN3CCc4ccccc43)[nH]c(=O)c2c1` [Ex. #90, tert-butyl N-[4-[[2-(indolin-1-ylmethyl)-4-oxo-3H-quinazolin-6-yl]oxy]butyl]carbamate]?
A: EC50 (Calreticulin): 5.49 µM; EC50 (HMGB1): 8.76 µM; melting point: 167 to 181 °C

Q: For `CN(C)c1cc2c(=O)[nH]c(CN3CC(C)(C)c4ccccc43)nc2cn1` [Ex. #92, 6-(dimethylamino)-2-[(3,3-dimethylindolin-1-yl)methyl]-3H-pyrido[3,4-d]pyrimidin-4-one], which EC50 (Calreticulin) is on record?
A: 0.0988 µM

Q: And the EC50 (HMGB1)?
A: 0.14 µM

Q: What about the melting point of the same molecule?
A: 194 to 211 °C

Q: Which EC50 (Calreticulin) does the source give for `CC1(C)CN(Cc2nc3ccc(C#N)cc3c(=O)[nH]2)c2ccccc21` [Ex. #95, 2-[(3,3-dimethylindolin-1-yl)methyl]-4-oxo-3H-quinazoline-6-carbonitrile] here?
A: 9.96 µM

Q: What about the EC50 (HMGB1) of the same molecule?
A: 11.5 µM

Q: And the melting point?
A: 187 to 197 °C

Q: What does the source list for `COc1ccc2nc(CN3CC(C)c4ccccc43)[nH]c(=O)c2c1` (stereo not drawn) [Ex. #3, 6-methoxy-2-[(3-methylindolin-1-yl)methyl]-3H-quinazolin-4-one]?
A: EC50 (Calreticulin): 0.191 µM; EC50 (HMGB1): 0.263 µM; melting point: 192 to 213 °C

Q: Which results are given for `O=c1[nH]c(CN2CCc3ccccc32)nc2ccc(F)cc12` [Ex. #88, 6-fluoro-2-(indolin-1-ylmethyl)-3H-quinazolin-4-one]?
A: EC50 (Calreticulin): 7.56 µM; EC50 (HMGB1): 4.66 µM; melting point: 184 to 196 °C

Q: For `COc1ccc2nc(CN3CCc4c(cccc4OC)C3)[nH]c(=O)c2c1` [Ex. #17, 6-methoxy-2-[(5-methoxy-3,4-dihydro-1H-isoquinolin-2-yl)methyl]-3H-quinazolin-4-one], which EC50 (Calreticulin) is on record?
A: 0.54 µM

Q: And the EC50 (HMGB1)?
A: 6.06 µM

Q: What about the melting point of the same molecule?
A: 204 to 218 °C

Q: Which EC50 (Calreticulin) does the source give for `COc1cc2c(=O)[nH]c(CN3CCc4ccccc43)nc2cn1` [Ex. #78, 2-(indolin-1-ylmethyl)-6-methoxy-3H-pyrido[3,4-d]pyrimidin-4-one] here?
A: 2.45 µM

Q: And the EC50 (HMGB1)?
A: 3.25 µM

Q: And the melting point?
A: 215 to 230 °C

Q: For `CC1CN(Cc2nc3ccc(Cl)cc3c(=O)[nH]2)c2ccccc21` (stereo not drawn) [Ex. #37, 6-chloro-2-[(3-methylindolin-1-yl)methyl]-3H-quinazolin-4-one], which EC50 (Calreticulin) is on record?
A: 1.16 µM

Q: And the EC50 (HMGB1)?
A: 3.16 µM

Q: What about the melting point of the same molecule?
A: 200 to 223 °C

Q: For `COc1ccc2nc(CN3CCc4c(N)cccc4C3)[nH]c(=O)c2c1` [Ex. #133, 2-[(5-amino-3,4-dihydro-1H-isoquinolin-2-yl)methyl]-6-methoxy-3H-quinazolin-4-one], which EC50 (Calreticulin) is on record?
A: 8.16 µM

Q: What about the EC50 (HMGB1) of the same molecule?
A: 14 µM

Q: What about the melting point of the same molecule?
A: 211 to 233 °C

Q: With `COc1ccc2nc(CN3CCc4ccc(F)cc43)[nH]c(=O)c2c1` [Ex. #7, 2-[(6-fluoroindolin-1-yl)methyl]-6-methoxy-3H-quinazolin-4-one] as the molecule, how does the EC50 (Calreticulin) read?
A: 0.323 µM

Q: And the EC50 (HMGB1)?
A: 0.425 µM

Q: And the melting point?
A: 229 to 235 °C

Q: For `COc1ccc2nc(CN3CCCCc4ccccc43)[nH]c(=O)c2c1` [Ex. 22, 6-methoxy-2-(2,3,4,5-tetrahydro-1-benzazepin-1-ylmethyl)-3H-quinazolin-4-one], which EC50 (Calreticulin) is on record?
A: 0.339 µM

Q: And the EC50 (HMGB1)?
A: 0.429 µM

Q: What about the melting point of the same molecule?
A: 191 to 206 °C

Q: Which EC50 (Calreticulin) does the source give for `COc1ccc2nc(CN3CCc4cccc(F)c43)[nH]c(=O)c2c1` [Ex. #8, 2-[(7-fluoroindolin-1-yl)methyl]-6-methoxy-3H-quinazolin-4-one] here?
A: 5.66 µM

Q: What about the EC50 (HMGB1) of the same molecule?
A: 8.36 µM

Q: What about the melting point of the same molecule?
A: 208 to 227 °C

Q: For `COc1ccc2nc(CN3CC(CO)c4ccccc43)[nH]c(=O)c2c1` (stereo not drawn) [Ex. #9, 2-[[3-(hydroxymethyl)indolin-1-yl]methyl]-6-methoxy-3H-quinazolin-4-one], which EC50 (Calreticulin) is on record?
A: 12.8 µM

Q: What about the EC50 (HMGB1) of the same molecule?
A: 11.7 µM

Q: And the melting point?
A: 190 to 209 °C

Q: Which EC50 (Calreticulin) does the source give for `CC(C)c1ccc2nc(CN3CCc4ccccc43)[nH]c(=O)c2c1` [Ex. #81, 2-(indolin-1-ylmethyl)-6-isopropyl-3H-quinazolin-4-one] here?
A: 0.08 µM

Q: What about the EC50 (HMGB1) of the same molecule?
A: 0.41 µM

Q: What about the melting point of the same molecule?
A: 168 to 185 °C

Q: Which results are given for `COc1cc2c(=O)[nH]c(CN3CC(C)(C)c4ccccc43)nc2cn1` [Ex. #79, 2-[(3,3-dimethylindolin-1-yl)methyl]-6-methoxy-3H-pyrido[3,4-d]pyrimidin-4-one]?
A: EC50 (Calreticulin): 0.796 µM; EC50 (HMGB1): 0.801 µM; melting point: 145 to 167 °C

Q: For `COc1ccc2nc(CN3CCc4ccccc4C3)[nH]c(=O)c2c1` [Ex. #122, 2-(3,4-dihydro-1H-isoquinolin-2-ylmethyl)-6-methoxy-3H-quinazolin-4-one], which EC50 (Calreticulin) is on record?
A: 1.66 µM

Q: And the EC50 (HMGB1)?
A: 12.7 µM

Q: What about the melting point of the same molecule?
A: 174 to 179 °C

Q: With `CN(C)c1cc2c(=O)[nH]c(CN3CCc4ccccc43)nc2cc1F` [Ex. #80, 6-(dimethylamino)-7-fluoro-2-(indolin-1-ylmethyl)-3H-quinazolin-4-one] as the molecule, how does the EC50 (Calreticulin) read?
A: 0.22 µM

Q: What about the EC50 (HMGB1) of the same molecule?
A: 0.225 µM

Q: And the melting point?
A: 200 to 223 °C

Q: With `COc1ccc2nc(CN3CCc4c(C#N)cccc4C3)[nH]c(=O)c2c1` [Ex. #16, 2-[(6-methoxy-4-oxo-3H-quinazolin-2-yl)methyl]-3,4-dihydro-1H-isoquinoline-5-carbonitrile] as the molecule, how does the EC50 (Calreticulin) read?
A: 0.49 µM

Q: And the EC50 (HMGB1)?
A: 2.66 µM

Q: And the melting point?
A: 197 to 218 °C

Q: For `COCCCOc1ccc2nc(CN3CC(C)(C)c4ccccc43)[nH]c(=O)c2c1` [Ex. #96, 2-[(3,3-dimethylindolin-1-yl)methyl]-6-(3-methoxypropoxy)-3H-quinazolin-4-one], which EC50 (Calreticulin) is on record?
A: 9.86 µM

Q: And the EC50 (HMGB1)?
A: 10.6 µM

Q: What about the melting point of the same molecule?
A: 155 to 165 °C

Q: Which EC50 (Calreticulin) does the source give for `CC1(C)CN(Cc2nc3cc4c(cc3c(=O)[nH]2)OCO4)c2ccccc21` [Ex. #119, 6-[(3,3-dimethylindolin-1-yl)methyl]-7H-[1,3]dioxolo[4,5-g]quinazolin-8-one] here?
A: 6.16 µM

Q: And the EC50 (HMGB1)?
A: 7.56 µM

Q: What about the melting point of the same molecule?
A: 199 to 221 °C
